Measurements: US8470810B2, “Heterocyclic compounds suitable for treating disorders that respond to modulation of the dopamine D3 receptor” (Abbott GmbH & Co. KG, priority 2004, dated 2013)

Columns and labels:
[1] = target: T1, human dopamine D2L receptors (long isoform) (Homo sapiens, UniProt P14416); test: Dopamine D2L receptor binding, displacement of [125I] iodospiperone; conditions: membranes of HEK-293 cells stably expressing human D2L; 0.01 nM [125I] iodospiperone; 25° C., 60 minutes; read-out: Ki(D2)*
T1 construct: expressed in transfected cells
T1 sequence (P14416 whole entry, canonical isoform): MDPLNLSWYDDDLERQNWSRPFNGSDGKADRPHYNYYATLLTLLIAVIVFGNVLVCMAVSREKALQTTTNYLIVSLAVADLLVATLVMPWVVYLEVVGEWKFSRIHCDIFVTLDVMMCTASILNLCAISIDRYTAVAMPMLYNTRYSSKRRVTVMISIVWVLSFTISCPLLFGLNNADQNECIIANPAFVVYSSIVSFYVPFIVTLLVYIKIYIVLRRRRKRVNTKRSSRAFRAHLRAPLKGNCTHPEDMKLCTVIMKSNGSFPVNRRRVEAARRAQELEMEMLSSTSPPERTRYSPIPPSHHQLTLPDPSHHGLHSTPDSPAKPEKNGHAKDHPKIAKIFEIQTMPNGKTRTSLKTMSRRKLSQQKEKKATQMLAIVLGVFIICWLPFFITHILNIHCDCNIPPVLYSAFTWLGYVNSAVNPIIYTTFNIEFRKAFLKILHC
Outline: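 Displacement of [125I]iodospiperone from human D2L receptors, triplicates, in 50 mM Tris pH 7.4 with 120 mM NaCl, 5 mM KCl, 2 mM CaCl2, 2 mM MgCl2, 0.1% BSA. Incubated 60 min at 25 °C, then filtered and counted by scintillation. Ki came from iterative nonlinear regression of inhibition curves.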

[2] = target: T2, human dopamine D3 receptors (Homo sapiens, UniProt P35462); test: Dopamine D3 receptor binding, displacement of [125I]-iodosulpride; conditions: for Ki: membranes of HEK-293 cells stably expressing human D3, 0.1 nM [125I]-iodosulpride, 25° C., 60 minutes; for Ki(D2)*/Ki(D3)*: selectivity ratio of the receptor binding constants D2 over D3
T2 construct: expressed in transfected cells
T2 sequence (P35462 whole entry): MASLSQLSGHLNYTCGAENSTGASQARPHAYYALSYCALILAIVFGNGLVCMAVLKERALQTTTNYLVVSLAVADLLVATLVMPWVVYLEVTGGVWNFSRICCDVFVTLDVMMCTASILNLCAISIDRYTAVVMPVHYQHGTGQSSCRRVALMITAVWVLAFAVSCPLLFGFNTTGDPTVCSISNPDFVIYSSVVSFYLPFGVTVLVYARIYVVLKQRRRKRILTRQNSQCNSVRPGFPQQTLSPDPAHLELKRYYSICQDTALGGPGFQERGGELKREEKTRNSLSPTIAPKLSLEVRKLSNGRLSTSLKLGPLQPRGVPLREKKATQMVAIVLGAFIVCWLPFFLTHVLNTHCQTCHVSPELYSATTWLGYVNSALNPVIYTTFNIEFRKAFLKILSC
Outline: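 Displacement of [125I]-iodosulpride at human D3 receptors in pH 7.4 Tris buffer with NaCl, KCl, CaCl2, MgCl2, 0.1% BSA, 10 μM quinolone and 0.1% ascorbic acid, 60 min at 25 °C, in triplicate. Bound label collected by filtration and counted; Ki from nonlinear regression of inhibition curves.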

| Ki [1] | Ki [2] | Ki(D2)*/Ki(D3)* [2] | Compound |
| --- | --- | --- | --- |
| 17.3 nM | 0.61 nM | 28 | CCCN1CC[C@@H](c2ccc(NS(=O)(=O)c3ccc(CCCF)cc3)cc2)C1 [Example 92, 4-(3-Fluoro-propyl)-N-[4-((S)-1-propyl-pyrrolidin-3-yl)-phenyl]-benzenesulfonamide] |
| 14.7 nM | 0.48 nM | 31 | CCCN1CC[C@@H](c2ccc(NS(=O)(=O)c3ccc([C@@H](C)CF)cc3)cc2)C1 [Example 93, 4-((R)-2-Fluoro-1-methyl-ethyl)-N-[4-((S)-1-propyl-pyrrolidin-3-yl)-phenyl]-benzenesulfonamide] |
| 4.7 nM | 0.23 nM | 21 | CC(C)c1ccc(S(=O)(=O)Nc2ccc([C@@H]3CCN(CC4CC4)C3)cc2)cc1 [Example 94, N-[4-((S)-1-Cyclopropylmethyl-pyrrolidin-3-yl)-phenyl]-4-isopropyl-benzenesulfonamide] |
| 27.9 nM | 1.3 nM | 22 | CCCN1CC[C@@H](c2ccc(NS(=O)(=O)c3ccc(C(CF)CF)cc3)cc2)C1 [Example 95, 4-(2-Fluoro-1-fluoromethyl-ethyl)-N-[4-((S)-1-propyl-pyrrolidin-3-yl)-phenyl]-benzenesulfonamide] |
| 57.8 nM | 0.83 nM | 70 | CC(C)c1ccc(S(=O)(=O)Nc2ccc([C@@H]3CCN(CCF)C3)cc2)cc1 [Example 96, N-{4-[(S)-1-(2-Fluoro-ethyl)-pyrrolidin-3-yl]-phenyl}-4-isopropyl-benzenesulfonamide] |
| 268 nM | 3.7 nM | 73 | C=CCN1CC[C@@H](c2ccc(NS(=O)(=O)c3ccc(OC(F)(F)F)cc3)cc2)C1 [Example 101, N-[4-((S)-1-Allyl-pyrrolidin-3-yl)-phenyl]-4-trifluoromethoxy-benzenesulfonamide] |
| 2710 nM | 52 nM | 52 | O=S(=O)(Nc1ccc([C@@H]2CCNC2)cc1)c1ccc(OC(F)(F)F)cc1 [Example 102, N—((S)-4-Pyrrolidin-3-yl-phenyl)-4-trifluoromethoxy-benzenesulfonamide] |
| 45 nM | 1.2 nM | 38 | CCCN1CC[C@@H](c2ccc(NS(=O)(=O)c3ccc(CC(F)(F)F)cc3)cc2)C1 [Example 103, N-[4-((S)-1-Propyl-pyrrolidin-3-yl)-phenyl]-4-(2,2,2-trifluoro-ethyl)benzenesulfonamide] |
| 352 nM | 8.3 nM | 43 | CCN1CC[C@@H](c2ccc(NS(=O)(=O)c3ccc(OC(F)(F)F)cc3)cc2)C1 [Example 104, N-[4-((S)-1-Ethyl-pyrrolidin-3-yl)-phenyl]-4-trifluoromethoxy-benzenesulfonamide] |
| 309 nM | 6.1 nM | 51 | CCCN1CC[C@@H](c2ccc(NS(=O)(=O)c3ccc(Cl)s3)cc2)C1 [Example 105, 5-Chloro-thiophene-2-sulfonic acid [4-((S)-1-propyl-pyrrolidin-3-yl)-phenyl]-amide] |
| 45.8 nM | 0.42 nM | 108 | C=CCN1CC[C@@H](c2ccc(NS(=O)(=O)c3ccc(CCCF)cc3)cc2)C1 [Example 107, N-[4-((S)-1-Allyl-pyrrolidin-3-yl)-phenyl]-4-(3-fluoro-propyl)-benzene sulfonamide] |
| 204 nM | 11.2 nM | 18 | O=S(=O)(Nc1ccc([C@@H]2CCNC2)cc1)c1ccc(CCCF)cc1 [Example 108, 4-(3-Fluoro-propyl)-N—((S)-4-pyrrolidin-3-yl-phenyl)-benzenesulfonamide] |
| 258 nM | 7.4 nM | 35 | C[C@H](CF)c1ccc(S(=O)(=O)Nc2ccc([C@@H]3CCNC3)cc2)cc1 [Example 109, 4-((S)-2-Fluoro-1-methyl-ethyl)-N—((S)-4-pyrrolidin-3-yl-Phenyl)-benzenesulfonamide] |
| 895 nM | 6.6 nM | 135 | C[C@@H](CF)c1ccc(S(=O)(=O)Nc2ccc([C@@H]3CCNC3)cc2)cc1 [Example 110, 4-((R)-2-Fluoro-1-methyl-ethyl)-N—((S)-4-pyrrolidin-3-yl-phenyl)-benzenesulfonamide] |
| 723 nM | 16.4 nM | 44 | CN1CC[C@@H](c2ccc(NS(=O)(=O)c3ccc(OC(F)(F)F)cc3)cc2)C1 [Example 111, N-[4-((S)-1-Methyl-pyrrolidin-3-yl)-phenyl]-4-trifluoromethoxy-benzenesulfonamide] |
| 1200 nM | 10.3 nM | 116 | C=CCN1CC[C@H](c2ccc(NS(=O)(=O)c3ccc(C(C)C(F)(F)F)cc3)cc2)C1 (stereo partly drawn) [Example 112, N-[4-((R)-1-Allyl-pyrrolidin-3-yl)-phenyl]-4-(2,2,2-trifluoro-1-methyl-ethyl)benzenesulfonamide] |
| 42.2 nM | 0.49 nM | 86 | C=CCN1CC[C@@H](c2ccc(NS(=O)(=O)c3ccc([C@@H](C)CF)cc3)cc2)C1 [Example 113, N-[4-((S)-1-Allyl-pyrrolidin-3-yl)-phenyl]-4-((R)-2-fluoro-1-methyl-ethyl)benzenesulfonamide] |
| 464 nM | 4.2 nM | 111 | O=S(=O)(Nc1ccc([C@@H]2CCN(CCCF)C2)cc1)c1ccc(OC(F)(F)F)cc1 [Example 114, N-{4-[(S)-1-(3-Fluoro-propyl)-pyrrolidin-3-yl]-phenyl}-4-trifluoromethoxy-benzenesulfonamide] |
| 1170 nM | 36.6 nM | 32 | CCCN1CC[C@@H](c2ccc(NS(=O)(=O)c3ccc(-c4cnn(C)c4)cc3)cc2)C1 [Example 118, 4-(1-Methyl-1H-pyrazol-4-yl)-N-[4-((S)-1-propyl-pyrrolidin-3-yl)-phenyl]-benzenesulfonamide] |
| 174 nM | 2 nM | 86 | CCCN1CC[C@@H](c2ccc(NS(=O)(=O)c3ccc(N4CCOCC4)cc3)cc2)C1.Cl [Example 120, 4-Morpholin-4-yl-N-[4-((S)-1-propyl-pyrrolidin-3-yl)-phenyl]-benzenesulfonamide hydrochloride] |
| 163 nM | 3.7 nM | 44 | CCCN1CC[C@@H](c2ccc(NS(=O)(=O)c3ccc(OCc4ccccc4)cc3)cc2)C1 [Example 121, 4-Benzyloxy-N-[4-((S)-1-propyl-pyrrolidin-3-yl)-phenyl]-benzenesulfonamide] |
| 1340 nM | 43.9 nM | 31 | CCCN1CC[C@@H](c2ccc(NS(=O)(=O)c3ccc(O)cc3)cc2)C1 [Example 122, 4-Hydroxy-N-[4-((S)-1-propyl-pyrrolidin-3-yl)-phenyl]-benzenesulfonamide] |
| 41 nM | 0.45 nM | 91 | C=Cc1ccc(S(=O)(=O)Nc2ccc([C@@H]3CCN(CCC)C3)cc2)cc1 [Example 123, N-[4-((S)-1-Propyl-pyrrolidin-3-yl)-phenyl]-4-vinyl-benzenesulfonamide] |
| 1300 nM | 19.5 nM | 67 | CCCN1CC[C@@H](c2ccc(NS(=O)(=O)c3ccc(F)cc3)cc2)C1.Cl [Example 125, 4-Fluoro-N-[4-((S)-1-propyl-pyrrolidin-3-yl)-phenyl]-benzenesulfonamide hydrochloride] |
| 1020 nM | 34 nM | 30 | CCCN1CC[C@@H](c2ccc(NS(=O)(=O)c3ccc(F)c(F)c3)cc2)C1.Cl [Example 126, 3,4-Difluoro-N-[4-((S)-1-propyl-pyrrolidin-3-yl)-phenyl]-benzenesulfonamide hydrochloride] |
| 64.7 nM | 0.6 nM | 112 | CCCN1CC[C@@H](c2ccc(NS(=O)(=O)c3ccc(N4CCC(F)(F)C4)cc3)cc2)C1 [Example 127, 4-(3,3-Difluoro-pyrrolidin-1-yl)-N-[4-((S)-1-propyl-pyrrolidin-3-yl)-phenyl]-benzenesulfonamide] |
| 12.9 nM | 2.7 nM | 5 | CC(C)c1ccc(S(=O)(=O)Nc2ccc(C3CCN(Cc4ccccc4)C3)c(F)c2)cc1 (stereo not drawn) [Example 128, N-[4-(1-Benzyl-pyrrolidin-3-yl)-3-fluoro-phenyl]-4-isopropyl-benzenesulfonamide] |
| 106 nM | 3.6 nM | 30 | CC(C)c1ccc(S(=O)(=O)Nc2ccc(C3CCNC3)c(F)c2)cc1 (stereo not drawn) [Example 129, N-(3-Fluoro-4-pyrrolidin-3-yl-phenyl)-4-isopropyl-benzenesulfonamide] |
| 8.5 nM | 0.52 nM | 16 | CCCN1CCC(c2ccc(NS(=O)(=O)c3ccc(C(C)C)cc3)cc2F)C1.Cl (stereo not drawn) [Example 130, N-[3-Fluoro-4-(1-propyl-pyrrolidin-3-yl)-phenyl]-4-isopropyl-benzenesulfonamide, hydrochloride] |
| 193 nM | 7.3 nM | 26 | CCCN1CCC[C@@H](c2ccc(NS(=O)(=O)c3ccc(OC(F)(F)F)cc3)cc2)C1 [Example 133, N-[4-((S)-1-Propyl-piperidin-3-yl)-phenyl]-4-trifluoromethoxy-benzenesulfonamide] |

| Compound | Ki [1] | Ki [2] | Ki(D2)*/Ki(D3)* [2] |
| --- | --- | --- | --- |
| N-[4-((S)-1-Propyl-pyrrolidin-3-yl)-phenyl]-4-pyrrol-1-yl-benzenesulfonamide [Example 74] | 10.5 nM | 0.69 nM | 15 |
